In US12685709B2, “Solid solution compositions and use in chronic inflammation” (Infirst Healthcare Limited, priority 2011, dated 2026):
Several values for one entry are separate records, joined by “and”; a condition that tells them apart may be missing. Equal entries are not always repeated.

Key:
[1] = system: U937 monocyte cell line differentiated into macrophages; conditions: % therapeutic compound taken up by macrophages after 45 minutes incubation, HPLC; N=2
Method: Cultures of U937 monocyte cell line were grown in RPMI-1640 supplemented with 10% fetal calf serum (FCS) until the cells reached 90% confluent monolayer. These cells were then treated with PMA and incubated in a 37° C. incubator under 5% carbon dioxide until the cells differentiated into macrophages. […] After incubation for 45 minutes the test solution supernatants were removed and saved for analysis, and the cells were then washed in PBS several times and lysed using two cycles of freeze-thawing. Therapeutic compound concentration present in the test solution, test solution supernatant, and cell lyste fractions was measured by HPLC. The percentage therapeutic compound taken up by the macrophages was calculated using the following formula: % therapeutic compound adsorbed=100×(compound mass recovered from cell lysate)/(compound mass delivered in test solution−compound mass recovered from test solution supernatant).

[2] = system: TBS-induced colitis murine model; assay: Animal model for inflammatory bowel disease (TNBS-induced colitis); type: in vivo, C57BI/6 male mice; conditions: for Mean Colon Length / Mean Colon Weight / Mean Animal Weight: TNBS colitis; for Mean Colon Length / Mean Colon Weight / Endoscopy Colitis Severity Score Day 5: day 5; for Mean Animal Weight: oral dosing day -1 to day 5, Prednisolone 3 mg/kg, ibuprofen 20 mg/kg, BC1054-20 20 mg/kg, BC1054-30 30 mg/kg; for Endoscopy Colitis Severity Score Day 3 / Endoscopy Colitis Severity Score Day 5: video endoscopy, scale 0 to 4
Method: To assess the effectiveness of a pharmaceutical composition disclosed herein in treating an inflammatory bowel disease, experiments were conducted using a […] colitis murine model.
C57BI/6 male mice (6-7 weeks old) were divided into seven experimental groups containing at least ten animals each. On day 0, colitis was induced in mice from Groups B-G by intrarectal administration of 100 μL of TNBS (4 mg) in 50% ethanol under isoflurane anesthesia. Animals were dosed either once or three times a day from day −1 to day 5 with one of seven different treatments. Group A was a control in which each mouse was orally administered ethanol vehicle only. Group B was a control in which each mouse was orally administered 1% methylcellulose vehicle only. Group C was a control in which each mouse was orally administered solvent/adjuvant vehicle only (gavage of 10% ethanol and 90% linseed oil). Group D was a control in which each mouse was orally administered 3 mg/kg of Prednisolone. Group E was a control in which each mouse was orally administered 20 mg/kg of ibuprofen suspended in 1% methylcellulose (1 ml/kg) (no adjuvant). Group F was the experimental group in which each mouse was administered a pharmaceutical composition disclosed herein (BC1054-20) comprising 20 mg/kg of ibuprofen, 10% ethanol, and 90% linseed oil. Group G was the experimental group in which each mouse was administered a pharmaceutical composition disclosed herein (BC1054-30) comprising 30 mg/kg of ibuprofen, 10% ethanol, and 90% linseed oil. All animals were weighed daily and assessed visually for the presence of diarrhea and/or bloody stool. On day 3 and on day 5 colitis severity was assessed in all animals using video endoscopy, where images were taken and colitis severity scored visually by a blinded observer on a scale from 0 to 4 as follows: 0, normal; 1, loss of vascularity; 2, loss of vascularity and friability; 3, friability and erosions; and 4, ulcerations and bleeding. Following endoscopy on day 5, animals were sacrificed and the colon removed and its length and weight measured. Serum samples were obtained and the colon was fixed in 10% formalin. An additional piece of colon tissue was collected, weighed, and snap frozen in liquid nitrogen.

[3] = system: intestinal erosion murine model; assay: Animal model for intestinal erosion (gastric irritation score); type: in vivo, Sprague-Dawley rats; conditions: for Mean Ulceration Score: 4 hours after treatment, score 0-4
Method: To assess whether a pharmaceutical composition disclosed herein reduced gastric irritation, experiments were conducted using an intestinal erosion murine model.
Sprague-Dawley rats were divided into seven experimental groups containing five animals each. After fasting overnight, the animals were challenged with one with one of seven different treatments. Group A was a control in which each mouse was orally administered 1% methylcellulose/0.5% polysorbate 80 vehicle only. Group B was a control in which each mouse was orally administered solvent/adjuvant vehicle only (gavage of 10% ethanol and 90% linseed oil). Group C was a control in which each mouse was orally administered 150 mg/kg aspirin. Group D was a control in which each mouse was orally administered 100 mg/kg ibuprofen suspended in 1% methylcellulose/0.5% polysorbate 80. Group E was the experimental group in which each mouse was administered a pharmaceutical composition disclosed herein (BC1054-100) comprising 100 mg/kg of ibuprofen, 10% ethanol, and 90% linseed oil. Group F was a control in which each mouse was orally administered 100 mg/kg ibuprofen suspended in 1% methylcellulose/0.5% polysorbate 80. Group G was the experimental group in which each mouse was administered a pharmaceutical composition disclosed herein (BC1054-200) comprising 200 mg/kg of ibuprofen, 10% ethanol, and 90% linseed oil. Animals were sacrificed 4 hours after treatment and the stomachs were examined for degree of hemorrhage and severity of mucosal erosive lesions. Gastric irritation was scored as follows: 0, no lesions; 1, hyperemia; 2, one or two slight lesions; 3, more than two slight lesions or severe lesions; and 4, very severe lesions. A score of 50% or more relative to Group C (aspirin-treated control group), which was set to 100%, was considered a positive score for gastric irritation.

[4] = system: α-collagen antibody induced arthritis (ACAIA) murine model; assay: Alpha-collagen antibody induced arthritis (ACAIA) model for systemic arthritis; type: in vivo, Male BALB/c mice; conditions: for mean paw thickness compared to vehicle-treated Group 1M (significance): ANOVA with Tukey post hoc
Method: To assess the effectiveness of a pharmaceutical composition disclosed herein in treating arthritis, experiments were conducted using an α-collagen antibody induced arthritis (ACAIA) murine model that mimics a systemic arthritis like rheumatoid arthritis.
Male BALB/c mice were divided into eight groups, each containing 10 animals. To induce arthritic symptoms, mice from all eight groups were intravenously injected with 200 μL of an antibody solution comprising a 2 mg cocktail of four α-collagen II monoclonal antibodies (ARTHRITOMAB™, MD Biosciences) on study day 0 (study commencement), followed by a 200 μL intraperitoneal injection of a solution containing 100 μg lipopolysaccharide (LPS) on study day 3. Each group was subjected daily to a control or test treatment administered from day 0-11 as follows: Group 1 mice (1M) were treated orally with a vehicle preparation containing 1% methyl cellulose administered thrice daily; Group 2 mice (2M) were treated intraperitoneally with a positive control preparation containing 10 mg/kg etanercept (ENBREL®, Wyeth) administered once daily; Group 3 mice (3M) were treated orally with a 20 mg/kg test liquid formulation comprising ibuprofen and rapeseed oil (BC1054 LF-RO) administered once daily; Group 4 mice (4M) were treated orally with a 20 mg/kg test liquid formulation comprising ibuprofen and rapeseed oil (BC1054 LF-RO) administered thrice daily; Group 5 mice (5M) were treated orally with a 20 mg/kg test liquid formulation comprising ibuprofen and a glyceryl monolinoleate (MAISINE™ 35-1, Gattefosse) (BC1054 LF-MA) administered thrice daily; Group 6 mice (6M) were treated orally with a 20 mg/kg test solid formulation comprising ibuprofen and theobroma oil (BC1054 LF-TO) administered thrice daily; Group 7 mice (7M) were treated orally with a control preparation 1 comprising 20 mg/kg of ibuprofen administered thrice daily; and Group 8 mice (8M) were treated orally with a 20 mg/kg test solid formulation comprising ibuprofen and a waxy solid having a melting point of between 37° C. to 41° C. and comprising a mixture of saturated C10-C18 triglycerides ([…]® 39/01, Gattefosse) (BC1054 LF-GE) administered thrice daily (Table 6). The dose administered was calculated based on the assumption that each animal weighed, on average, 20 g. A fixed volume of 100 μL was administered to each mouse, except those animals receiving the positive control (2M) were administered 200 μL.
Arthritic development and clinical examinations were monitored in all mice on study day 0 shortly before arthritis induction and subsequently on study days 3-7, 9, 10 and 12 (study termination). To access arthritic development, both an arthritis score and paw thickness (plethysmography) measurements were obtained. The arthritis score was based on visual assessment of arthritis reactions using a 0-4 scale in ascending order of severity with Grade 0 indicating no arthritis reaction; Grade 1 indicating mild, but definite redness and swelling of the ankle/wrist or apparent redness and swelling limited to individual digits, regardless of the number of affected digits; Grade 2 indicating moderate to severe redness and swelling of the ankle/wrist; Grade 3 indicating redness and swelling of the entire paw including digits; and Grade 4 indicating maximally inflamed limb with involvement of multiple joints. Paw thickness was measured for both hind paws just above the foot pad and below the calcaneum using a dial caliper (Kroeplin, Munich, Germany). Mean values for paw thickness measurements were determined, and where appropriate, analysis of the data by ANOVA with Tukey post hoc analysis was applied to determine significance of treatment effects.
Clinical examinations included changes in body weight, condition of skin, fur, eyes, mucous membranes, occurrence of secretions and excretions (e.g. diarrhea), and autonomic activity (e.g. lacrimation, salivation, piloerection, pupil size, unusual respiratory pattern). […]

[5] = statistical comparison, doses as E9
[6] = day 6, 20 mg/kg PO thrice daily (Groups 4M-8M)

For CC(C)Cc1ccc(C(C)C(=O)O)cc1 (stereo not drawn) [Formulation C, ibuprofen free acid], the “Mean Mass Compound Uptake” value [1] was 0.4%.

For C[C@]12C=CC(=O)C=C1CC[C@@H]1[C@@H]2[C@@H](O)C[C@@]2(C)[C@H]1CC[C@]2(O)C(=O)CO [Prednisolone], the Mean Colon Length ([2]; doses as E9) was 8.4 cm, the “Mean Colon Weight” value ([2]; doses as E9) was 267 mg and the “Mean Animal Weight” value [2] was 23.33 g. For the same compound, the “mean colitis scores compared to Group B (TNBS-treated control group)” value [2, 5] was “statistically significant reduced mean colitis scores on both day 3 and day 5”, the “mean colon length compared to Group B (TNBS-treated control group)” value [2, 5] was “statistically significant increase in mean colon length” and the “Endoscopy Colitis Severity Score Day 3” value ([2]; doses as E9) was 2.3^7. For the same compound, the “Endoscopy Colitis Severity Score Day 5” value ([2]; doses as E9) was 1.7^8.

In the case of CC(=O)Oc1ccccc1C(=O)O [aspirin], the “% Aspirin Erosion” value ([3]; Group C, 150 mg/kg aspirin, set to 100%) is reported as “(100) %” and the “Mean Ulceration Score” value ([3]; Group C, 150 mg/kg oral) is reported as 4.

CC(C)Cc1ccc(C(C)C(=O)O)cc1 (stereo not drawn) [ibuprofen] was tested, and the “% Aspirin Erosion” value ([3]; 100 mg/kg ibuprofen (Groups D, E), relative to Group C, 50% or more = positive score for gastric irritation) was 75% and 75^1%, the “Mean Ulceration Score” value ([3]; 100 mg/kg ibuprofen oral (Groups D, E)) was 3 and the “% Aspirin Erosion” value ([3]; 200 mg/kg ibuprofen (Groups F, G), relative to Group C, 50% or more = positive score for gastric irritation) was 95% and 95^1%. The “Mean Ulceration Score” value ([3]; 200 mg/kg ibuprofen oral (Groups F, G)) was 3.8, the “Mean Colon Length” value ([2]; doses as E9) was 7.9 cm and the “Mean Colon Weight” value ([2]; doses as E9) was 267 mg. The “Mean Animal Weight” value [2] was 23.82 g, the “Endoscopy Colitis Severity Score Day 3” value ([2]; doses as E9) was 2.7 and the “Endoscopy Colitis Severity Score Day 5” value ([2]; doses as E9) was 2.2. For the same compound, the “mean paw thickness compared to vehicle-treated Group 1M (significance)” value ([4]; 20 mg/kg PO thrice daily (Groups 4M-8M)) was “No significant differences were observed”, the “Mean Rear Paw Thickness” value ([4]; day 0, 20 mg/kg PO thrice daily (Groups 4M-8M), 20 mg/kg) was 1.71±0.02 mm and 1.71 mm and the “Mean Rear Paw Thickness” value ([4]; day 3, 20 mg/kg PO thrice daily (Groups 4M-8M)) was 1.72 mm. For the same compound, the “Mean Rear Paw Thickness” value ([4]; day 4, 20 mg/kg PO thrice daily (Groups 4M-8M)) was 1.64 mm, the “Mean Rear Paw Thickness” value ([4]; day 5, 20 mg/kg PO thrice daily (Groups 4M-8M)) was 1.71 mm and the Arthritis incidence [4, 6] was 8/10. The “Mean Rear Paw Thickness” value [4, 6] was 1.90 mm, the “Mean Rear Paw Thickness” value ([4]; day 7, 20 mg/kg PO thrice daily (Groups 4M-8M), 20 mg/kg) was 2.15±0.10 mm and 2.15 mm and the “Mean Rear Paw Thickness” value ([4]; day 9, 20 mg/kg PO thrice daily (Groups 4M-8M)) was 2.08 mm. For the same compound, the “Mean Rear Paw Thickness” value ([4]; day 10, 20 mg/kg PO thrice daily (Groups 4M-8M)) was 2.07 mm and the “Mean Rear Paw Thickness” value ([4]; day 12, 20 mg/kg PO thrice daily (Groups 4M-8M), 20 mg/kg) was 2.02±0.08 mm and 2.02 mm.

Etanercept was tested, and the “mean paw thickness compared to vehicle-treated Group 1M (significance)” value ([4]; once daily dosing (Groups 2M, 3M)) was “significantly decreased paw volume compared to the positive control mice on days 9, 10 and 12”, the “Mean Rear Paw Thickness” value ([4]; day 0, once daily (Etanercept 10 mg/kg IP, Group 2M; BC1054 LF-RO 20 mg/kg PO, Group 3M)) was 1.70±0.02 mm and 1.70 mm and the “Mean Rear Paw Thickness” value ([4]; day 3, once daily (Etanercept 10 mg/kg IP, Group 2M; BC1054 LF-RO 20 mg/kg PO, Group 3M)) was 1.73 mm. The “Mean Rear Paw Thickness” value ([4]; day 4, once daily (Etanercept 10 mg/kg IP, Group 2M; BC1054 LF-RO 20 mg/kg PO, Group 3M)) was 1.64 mm, the “Mean Rear Paw Thickness” value ([4]; day 5, once daily (Etanercept 10 mg/kg IP, Group 2M; BC1054 LF-RO 20 mg/kg PO, Group 3M)) was 1.63 mm and the “Mean Rear Paw Thickness” value ([4]; day 6, once daily (Etanercept 10 mg/kg IP, Group 2M; BC1054 LF-RO 20 mg/kg PO, Group 3M)) was 1.96±0.05 mm and 1.96 mm. For the same compound, the Arthritis incidence ([4]; day 6, once daily dosing (Groups 2M, 3M)) was 9/10, the “Mean Rear Paw Thickness” value ([4]; day 7, once daily (Etanercept 10 mg/kg IP, Group 2M; BC1054 LF-RO 20 mg/kg PO, Group 3M)) was 1.95 mm and the “Mean Rear Paw Thickness” value ([4]; day 9, once daily (Etanercept 10 mg/kg IP, Group 2M; BC1054 LF-RO 20 mg/kg PO, Group 3M)) was 1.88 mm. The “Mean Rear Paw Thickness” value ([4]; day 10, once daily (Etanercept 10 mg/kg IP, Group 2M; BC1054 LF-RO 20 mg/kg PO, Group 3M)) was 1.80 mm, the “Mean Rear Paw Thickness” value ([4]; day 12, once daily (Etanercept 10 mg/kg IP, Group 2M; BC1054 LF-RO 20 mg/kg PO, Group 3M)) was 1.77±0.02 mm and 1.77 mm and the Arthritis incidence ([4]; day 12, once daily dosing (Groups 2M, 3M)) was 1/10.
